This is an account of results in US9186402B2 (Colorado State University Research Foundation, priority 2008, dated 2015).

Where two headings read alike, the source gives them in different places.

For data set [1] the following is noted: amide bond, HATU, CH3CN.
Data set [2] relates to human malignant melanoma cell lines. In words: cell viability by ATP content (Cell TiterGlo), melanoma panel. The note with it: range over panel of human malignant melanoma cell lines, read-out: IC50 melanoma cell proliferation / viability. Type of data set: cell-based. (In ATP-based viability assays light output follows the ATP content of the culture.)
The target in data set [3] is T1, HDAC2 (Homo sapiens, UniProt Q92769). Kind of data set: HDAC2 inhibition, trypsin-coupled kinetic fluorescence homogeneous assay. Type of data set: biochemical.
T1 sequence (Q92769 whole entry): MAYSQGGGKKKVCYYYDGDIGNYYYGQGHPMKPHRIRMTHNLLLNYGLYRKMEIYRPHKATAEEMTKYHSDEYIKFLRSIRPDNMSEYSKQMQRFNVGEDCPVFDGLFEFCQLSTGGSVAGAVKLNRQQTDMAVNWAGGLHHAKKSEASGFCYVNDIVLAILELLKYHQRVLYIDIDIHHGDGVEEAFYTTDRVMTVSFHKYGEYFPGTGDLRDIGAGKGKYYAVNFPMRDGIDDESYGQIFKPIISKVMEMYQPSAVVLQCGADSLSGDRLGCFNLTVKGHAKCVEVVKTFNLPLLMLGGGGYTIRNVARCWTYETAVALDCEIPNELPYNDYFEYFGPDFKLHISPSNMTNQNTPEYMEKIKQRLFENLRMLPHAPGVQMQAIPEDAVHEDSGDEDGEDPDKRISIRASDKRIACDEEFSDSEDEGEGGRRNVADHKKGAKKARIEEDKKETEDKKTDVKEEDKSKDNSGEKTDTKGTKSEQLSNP
Method: To measure the inhibitory effect on deacetylase function in vitro, a continuous kinetic biochemical assay miniaturized to 384-well plate format was optimized.
Fluorescence measurements were obtained in real-time on a Varioskan microtiter plate reader (Thermo). Triplicate experimental data from incubations with inhibitor were normalized to solvent-only wells and analyzed by logistic regression (Spotfire DecisionSite).
A biochemical study of HDAC2 inhibition was carried out using the trypsin-coupled, kinetic fluorescence homogeneous assay described above.
The target of data set [4] is HDAC1 (Homo sapiens, UniProt Q13547). In words: HDAC biochemical assay (IC50), 384-well homogeneous. As to conditions: reducing conditions (TCEP 200 μM); read-out: Biochemical inhibition of human HDACs (IC50) HDAC1.
HDAC1, sequence (Q13547 whole entry): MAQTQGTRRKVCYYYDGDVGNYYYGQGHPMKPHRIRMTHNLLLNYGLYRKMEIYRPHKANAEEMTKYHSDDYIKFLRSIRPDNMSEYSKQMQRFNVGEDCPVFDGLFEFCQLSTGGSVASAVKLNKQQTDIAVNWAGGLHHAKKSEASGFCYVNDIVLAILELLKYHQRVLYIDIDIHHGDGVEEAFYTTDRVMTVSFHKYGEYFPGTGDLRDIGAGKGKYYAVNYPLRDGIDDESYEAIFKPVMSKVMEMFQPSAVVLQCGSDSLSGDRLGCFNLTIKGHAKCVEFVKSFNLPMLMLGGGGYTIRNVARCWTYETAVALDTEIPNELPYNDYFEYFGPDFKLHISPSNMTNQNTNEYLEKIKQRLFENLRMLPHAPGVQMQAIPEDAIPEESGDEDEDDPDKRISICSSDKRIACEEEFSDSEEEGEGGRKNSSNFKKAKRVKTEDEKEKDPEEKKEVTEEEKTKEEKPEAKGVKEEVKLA
Method: (§1) The inhibitory effect of compounds on deacetylase isoenzyme function was determined in vitro using an optimized homogenous assay performed in 384-well plate format. […] Data are analyzed on a plate-by-plate basis for the linear range of fluorescence over time. Data from the plate capture corresponding to the mid-linear range is imported into analytical software and annotated with well identity and compound concentration (Spotfire DecisionSite). Replicate experimental data from incubations with inhibitor are normalized to control, solvent-only wells and IC-50 is deteremined by logistic regression.
(§2) A liquid handling device then transferred a tripeptide substrate terminating in acetyl-lysine and amide conjugated to 4-methyl-7-aminocoumarin (AMC), recombinant human histone deacetylase (BPS Bioscience, San Diego, Calif.), and recombinant human trypsin (Sigma-Aldrich, St. Louis, Mo.). Following deacetylase hydrolysis of acetyl-lysine, trypsin cleavage liberated the AMC fluorophore. Kinetic (fluorescence per unit time) and end-point (total fluorescence) data were captured by a multilabel plate reader. Replicate data were analyzed by curve-fit using logistic regression (Snotfire Decision—Site).
Data set [5] addresses T1, HDAC2. Described as above. The note with it: reducing conditions (TCEP 200 μM); read-out: Biochemical inhibition of human HDACs (IC50) HDAC2.
Method: as §1, §2
For data set [6], the target named is HDAC3/NCor2 (Homo sapiens, UniProt O15379). Described as above. The note with it: read-out: Biochemical inhibition of human HDACs (IC50) HDAC3.
HDAC3/NCor2, sequence (O15379 whole entry): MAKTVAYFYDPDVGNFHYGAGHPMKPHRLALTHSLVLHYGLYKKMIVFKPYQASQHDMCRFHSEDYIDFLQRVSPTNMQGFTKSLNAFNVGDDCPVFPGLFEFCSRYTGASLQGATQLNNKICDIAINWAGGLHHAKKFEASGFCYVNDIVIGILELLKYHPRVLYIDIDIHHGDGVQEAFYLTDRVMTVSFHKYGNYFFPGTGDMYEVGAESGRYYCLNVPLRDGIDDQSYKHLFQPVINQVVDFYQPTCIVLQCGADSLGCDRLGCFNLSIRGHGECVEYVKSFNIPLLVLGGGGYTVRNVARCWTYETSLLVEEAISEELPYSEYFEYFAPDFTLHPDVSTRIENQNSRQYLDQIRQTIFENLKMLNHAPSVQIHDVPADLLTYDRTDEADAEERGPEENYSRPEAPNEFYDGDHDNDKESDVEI
HDAC3/NCor2, sequence (Q9Y618 395-489 partner limits assumed): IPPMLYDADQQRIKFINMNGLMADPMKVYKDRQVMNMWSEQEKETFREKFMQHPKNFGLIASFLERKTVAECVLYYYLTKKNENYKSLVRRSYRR
Method: as §1, §2
For data set [7], the target named is T2, HDAC6 (Homo sapiens, UniProt Q9UBN7).
T2 sequence (Q9UBN7 1-1215): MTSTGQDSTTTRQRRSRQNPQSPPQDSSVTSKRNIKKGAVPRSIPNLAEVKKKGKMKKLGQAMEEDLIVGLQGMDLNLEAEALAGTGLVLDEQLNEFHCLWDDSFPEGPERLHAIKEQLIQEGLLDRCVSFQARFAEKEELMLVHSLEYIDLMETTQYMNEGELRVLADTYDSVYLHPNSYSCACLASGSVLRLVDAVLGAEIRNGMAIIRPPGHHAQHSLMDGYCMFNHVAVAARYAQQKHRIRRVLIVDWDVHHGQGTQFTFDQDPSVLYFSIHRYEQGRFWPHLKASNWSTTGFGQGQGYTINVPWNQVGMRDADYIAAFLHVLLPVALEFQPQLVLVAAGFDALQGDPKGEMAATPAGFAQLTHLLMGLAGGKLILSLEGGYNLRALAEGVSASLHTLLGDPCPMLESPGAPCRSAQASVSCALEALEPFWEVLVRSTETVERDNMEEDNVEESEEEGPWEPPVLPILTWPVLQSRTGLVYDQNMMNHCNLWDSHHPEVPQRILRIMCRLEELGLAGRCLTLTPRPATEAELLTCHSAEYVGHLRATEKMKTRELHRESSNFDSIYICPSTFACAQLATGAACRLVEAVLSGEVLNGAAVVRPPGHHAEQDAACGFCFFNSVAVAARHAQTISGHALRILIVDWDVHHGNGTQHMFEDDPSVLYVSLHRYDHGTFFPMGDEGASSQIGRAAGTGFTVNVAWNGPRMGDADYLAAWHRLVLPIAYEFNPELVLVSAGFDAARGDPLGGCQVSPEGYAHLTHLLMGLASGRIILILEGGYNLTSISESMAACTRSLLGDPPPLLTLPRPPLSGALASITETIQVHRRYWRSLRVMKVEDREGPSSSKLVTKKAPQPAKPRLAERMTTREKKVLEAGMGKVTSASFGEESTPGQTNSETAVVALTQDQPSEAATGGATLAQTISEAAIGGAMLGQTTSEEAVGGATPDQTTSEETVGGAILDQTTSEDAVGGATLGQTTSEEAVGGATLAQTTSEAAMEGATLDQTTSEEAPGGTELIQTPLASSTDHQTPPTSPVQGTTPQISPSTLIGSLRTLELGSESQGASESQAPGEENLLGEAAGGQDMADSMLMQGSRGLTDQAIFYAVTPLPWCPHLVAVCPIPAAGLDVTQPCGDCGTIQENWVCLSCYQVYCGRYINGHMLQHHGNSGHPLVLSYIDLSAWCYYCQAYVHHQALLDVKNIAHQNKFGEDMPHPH
The data set is described as above. As to conditions: read-out: Biochemical inhibition of human HDACs (IC50) HDAC6.
Method: as §1, §2

In data set [8] the test system is HDACs 1, 2 and 3. Kind of data set: HDAC biochemical assay, summary statements on Class I HDACs. Details: species or system human.
[9] abbreviates: reducing conditions (TCEP 200 μM).
The mark [10] stands for this setting: HDAC2, logistic fit of scatter plots, Conc (uM), read-out: X50 (curve fit, activity versus concentration).

`C[C@@]12CSC(=N1)c1csc(n1)CNC(=O)C[C@@H](/C=C/CCSC(c1ccccc1)(c1ccccc1)c1ccccc1)OC(=O)[C@@H]1CCCN1C2=O`: the ring closure, yield of all isomers in data set [1] (from CC(C)(C)OC(=O)NCc1nc(C2=N[C@](C)(C(=O)N3CCC[C@H]3C(=O)O[C@H](/C=C/CCSC(c3ccccc3)(c3ccccc3)c3ccccc3)CC(=O)OCC[Si](C)(C)C)CS2)cs1, 0.83 mM, […], 2 steps) stood at 43%.

Take `CCCCCCCC(=O)SCC/C=C/[C@@H]1CC(=O)NCc2nc(cs2)C2=N[C@@](C)(CS2)C(=O)N[C@@H](C(C)C)C(=O)O1` [largazole (1), largazole, reference compound]: the IC50 in data set [2] is 45 to 315 nM; in data set [3], 7.14 µM.

Turning to `CC(C)C1NC(=O)C2CSC(=N2)c2csc(n2)CNC(=O)CC(C=CCCS)OC1=O` (stereo not shown) [Cysteine substitution 22b], the IC50 in data set [4] was found to be 1.9 nM; in data set [5], 4.8 nM; in data set [6] (setting [9]), 3.8 nM; in data set [7] (setting [9]), 130 nM.

`CC(C)[C@H]1NC(=O)[C@@]2(C)CSC(=N2)c2csc(n2)CNC(=O)C[C@H](/C=C/CCSC(c2ccccc2)(c2ccccc2)c2ccccc2)OC1=O` came in with a ring closure, yield of all isomers in data set [1] (from CC(C)[C@@H](NC(=O)[C@@]1(C)CSC(c2csc(CNC(=O)OC(C)(C)C)n2)=N1)C(=O)O[C@@H](/C=C/CCSC(c1ccccc1)(c1ccccc1)c1ccccc1)CC(=O)OCC[Si](C)(C)C, 2 steps) of 87%.

As to `CC(C)[C@@H]1NC(=O)c2csc(n2)-c2csc(n2)CNC(=O)C[C@@H](/C=C/CCS)OC1=O` [Thiazole-thiazole (23b)], the IC50 in data set [5] was determined as 120 nM.

Turning to `CC(C)[C@@H]1NC(=O)[C@]2(C)CSC(=N2)c2csc(n2)CNC(=O)C[C@@H](/C=C/CCSC(c2ccccc2)(c2ccccc2)c2ccccc2)NC1=O`, the ring closure, yield of all isomers in data set [1] (from COC(=O)C[C@@H](/C=C/CCSC(c1ccccc1)(c1ccccc1)c1ccccc1)NC(=O)[C@@H](NC(=O)[C@]1(C)CSC(c2csc(CNC(=O)OC(C)(C)C)n2)=N1)C(C)C, 0.94 mM, […], 3 steps) turned out to be 50%.

With `CC(C)[C@@H]1NC(=O)[C@]2(C)CSC(=N2)c2csc(n2)CNC(=O)C[C@@H](C/C=C\CCC(=O)O)OC1=O` [Largazole-Azumamide hybrid (9b)], the IC50 in data set [4], in data set [5], in data set [6] (setting [9]) and in data set [7] (setting [9]) was greater than 30000 nM throughout.

For the compound `CCCCCCCC(=O)SCCCCC=CC1CC(=O)NCc2nc(cs2)C2=NC(C)(CS2)C(=O)NC(C(C)C)C(=O)O1` (stereo not shown) [ab6_162b], the IC50 in data set [3] (setting [10]) was determined as 2.69 µM.

Regarding `CCCCCCCC(=O)SCC/C=C/[C@@H]1CC(=O)NCc2nc(cs2)C2=N[C@@](C)(CS2)C(=O)N[C@@H](C(C)C)C(=O)N1` [ab6_1236 acyl amide], the “X50 (curve fit, activity versus concentration)” value in data set [3] (HDAC2, logistic fit of scatter plots, Conc (uM)) is on record as “X50 = 1.677E12 uM”.

`CC(C)C1NC(=O)C2(C)CSC(=N2)c2cccc(n2)CNC(=O)CC(C=CCCS)OC1=O` (stereo not shown) [Thiazole-pyridine substitution (29b)]: the IC50 in data set [6] (setting [9]) turned out to be 1.1 nM; in data set [7] (setting [9]), 29 nM. Also, in data set [8], the “activity against Class I HDACs” value is recorded as “sub-nanomolar”.

Regarding `C[C@@]12CSC(=N1)c1csc(n1)CNC(=O)C[C@@H](/C=C/CCS)OC(=O)[C@@H]1CCCN1C2=O` [Proline substitution (4)], the “X50 (curve fit, activity versus concentration)” value in data set [3] is given as “X50 = 0.7733 uM”. The IC50 in data set [4] worked out at 110 nM; in data set [5], 800 nM; in data set [6], 580 nM; in data set [7], 13000 nM.

Turning to `CCCCCCCC(=O)SCC/C=C/[C@@H]1CC(=O)NCc2nc(cs2)C2=N[C@@](C)(CS2)C(=O)N2CCC[C@H]2C(=O)O1` [ab6_161b Proline acyl], the IC50 in data set [3] (setting [10]) was found to be 708 µM.
